Test systems include BT-549 breast; A498 renal; M14 melanoma; OVCAR-4 ovarian; SF-539 CNS; CCRF-CEM leukemia; NCI-H460 lung; MDA-N; HCT-116 colon; OVCAR-3 ovarian.
Holding throughout (assay): growth of human tumour cells (NCI), 48 h

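Five concentrations, 48 hours, 96-well plates. The concentration for full growth arrest is given as TGI.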 Bounds are passed on as bounds.

As for `O=C(CCCN1CCC2(CC1)C(=O)NC(=O)N2c1ccccc1)c1ccc(F)cc1`, the TGI in the experiment with BT-549 breast, in the experiment on A498 renal, in the experiment with M14 melanoma, with OVCAR-4 ovarian, in the experiment with SF-539 CNS and in the experiment with CCRF-CEM leukemia was greater than 100 µM throughout. Besides, the TGI in the experiment on NCI-H460 lung, with MDA-N, in the experiment with HCT-116 colon and in the experiment with OVCAR-3 ovarian was greater than 100 µM throughout.

Consider `Cc1ccc(-c2sc(-c3ccc(C)cc3)c3c2C2CCC3C2)cc1`, for which the TGI in the experiment with BT-549 breast, in the experiment with A498 renal, with M14 melanoma, with OVCAR-4 ovarian, with SF-539 CNS and in the experiment with CCRF-CEM leukemia was greater than 50 µM each time. For the same compound, the TGI in the experiment with NCI-H460 lung, with MDA-N, with HCT-116 colon and in the experiment with OVCAR-3 ovarian was greater than 50 µM in each case.

On to `N#Cc1cccc(C2ON=C(c3ccc([N+](=O)[O-])cc3)N2C23CC4CC(CC(C4)C2)C3)c1` (stereo not given), for which the TGI was greater than 100 µM in the experiment on BT-549 breast; greater than 100 µM in the experiment with A498 renal; greater than 100 µM with M14 melanoma; 76.8 µM with OVCAR-4 ovarian; greater than 100 µM in the experiment on SF-539 CNS; greater than 100 µM in the experiment with CCRF-CEM leukemia. The TGI with NCI-H460 lung, with MDA-N, in the experiment on HCT-116 colon and with OVCAR-3 ovarian was greater than 100 µM in each case.

For `CNNC1=NS(=O)(=O)c2cc(C)c(Cl)cc2S1`, the TGI in the experiment on BT-549 breast, in the experiment with A498 renal, in the experiment with M14 melanoma, with OVCAR-4 ovarian, with SF-539 CNS and in the experiment with CCRF-CEM leukemia was greater than 10 µM throughout. In addition, the TGI in the experiment with NCI-H460 lung, in the experiment on MDA-N, with HCT-116 colon and with OVCAR-3 ovarian was greater than 10 µM each time.

For the compound `O=C(c1ccc(Cl)cc1Cl)N(Cc1cccnc1)C(=S)N(Cc1cccnc1)C(=O)c1ccc(Cl)cc1Cl`, the TGI was 14.8 µM in the experiment on BT-549 breast; 24.4 µM in the experiment with A498 renal; 9.26 µM with M14 melanoma; 7.99 µM with OVCAR-4 ovarian; 4.43 µM with SF-539 CNS; greater than 100 µM in the experiment with CCRF-CEM leukemia. Also, the TGI with NCI-H460 lung worked out at 39.2 µM; in the experiment with MDA-N, 6.76 µM; in the experiment with HCT-116 colon, 6.19 µM; with OVCAR-3 ovarian it was 10.1 µM.

In the case of `CC(NC1=CC(=O)c2ncccc2C1=O)C(O)c1ccccc1` (stereo not given), the TGI with BT-549 breast was 7.25 µM; with A498 renal, 27.7 µM; in the experiment with M14 melanoma it was 11 µM; in the experiment with OVCAR-4 ovarian it was 22.3 µM; with SF-539 CNS, 19.7 µM; in the experiment with CCRF-CEM leukemia, greater than 100 µM. Further, the TGI in the experiment on NCI-H460 lung was determined as 3.22 µM; in the experiment with MDA-N, 3 µM; in the experiment with HCT-116 colon, 15.2 µM; with OVCAR-3 ovarian, 16.3 µM.

Turning to `Nc1nc(Cl)c(C=O)c(NCC2(CO)CC(CCc3ccccc3)C2)n1` (stereo not given), the TGI was 27.5 µM in the experiment on BT-549 breast; 42.1 µM in the experiment with A498 renal; 6.25 µM in the experiment on M14 melanoma; 4.21 µM in the experiment on OVCAR-4 ovarian; 17.8 µM with SF-539 CNS; 31.8 µM in the experiment on CCRF-CEM leukemia. Moreover, the TGI turned out to be 33.8 µM in the experiment with NCI-H460 lung, 18.1 µM in the experiment with MDA-N, 27.3 µM in the experiment with HCT-116 colon and 24.4 µM with OVCAR-3 ovarian.

Turning to `Cc1cccc(/C=N/NC(=S)NCc2ccccn2)n1`, the TGI with BT-549 breast is greater than 100 µM; in the experiment on A498 renal, greater than 100 µM; with M14 melanoma, 42.6 µM; with OVCAR-4 ovarian, greater than 100 µM; with SF-539 CNS it was 67.9 µM; in the experiment with CCRF-CEM leukemia it was greater than 100 µM. Moreover, the TGI in the experiment with NCI-H460 lung, in the experiment on MDA-N, in the experiment with HCT-116 colon and in the experiment on OVCAR-3 ovarian was greater than 100 µM throughout.

Consider `Cc1nc2c(o1)C(=O)c1ccccc1C2=NC1CCCCC1N` (stereo not given), for which the TGI in the experiment on BT-549 breast turned out to be 1.29 µM; with A498 renal, 3.12 µM; with M14 melanoma, 1.53 µM; in the experiment with OVCAR-4 ovarian it was 1.01 µM; with SF-539 CNS, 1.08 µM; in the experiment on CCRF-CEM leukemia, 1.28 µM. For the same compound, the TGI in the experiment on NCI-H460 lung stood at 3.15 µM; in the experiment with MDA-N, 0.343 µM; in the experiment on HCT-116 colon, 0.729 µM; in the experiment with OVCAR-3 ovarian, 1.66 µM.

`COC(=O)C1Cc2ccc(C)cc2C1=O` (stereo not given): the TGI in the experiment with BT-549 breast, in the experiment on A498 renal, in the experiment on M14 melanoma, in the experiment on OVCAR-4 ovarian, in the experiment with SF-539 CNS and with CCRF-CEM leukemia was greater than 100 µM in each case. The TGI with NCI-H460 lung, in the experiment with MDA-N, with HCT-116 colon and in the experiment with OVCAR-3 ovarian was greater than 100 µM throughout.

For the compound `COc1ccc(NC(=O)CC(=O)n2nc(C)c(N=Nc3ccc(C)c(C)c3)c2C)cc1`, the TGI in the experiment with BT-549 breast, with A498 renal, in the experiment on M14 melanoma, in the experiment with OVCAR-4 ovarian, in the experiment on SF-539 CNS and in the experiment with CCRF-CEM leukemia was greater than 100 µM throughout. Moreover, the TGI in the experiment with NCI-H460 lung, in the experiment on MDA-N, in the experiment with HCT-116 colon and in the experiment with OVCAR-3 ovarian was greater than 100 µM throughout.

Take `CSc1c(C(=O)Nc2ccc(C)cc2)c(N)nn1-c1ccccc1`: the TGI in the experiment on BT-549 breast is greater than 100 µM; in the experiment on A498 renal, 75.1 µM; in the experiment on M14 melanoma, greater than 100 µM; in the experiment with OVCAR-4 ovarian, greater than 100 µM; in the experiment with SF-539 CNS it was 92.1 µM; in the experiment on CCRF-CEM leukemia it was greater than 100 µM. Further, the TGI is 42.9 µM in the experiment with NCI-H460 lung, greater than 100 µM in the experiment on MDA-N, greater than 100 µM with HCT-116 colon and greater than 100 µM in the experiment with OVCAR-3 ovarian.

`O=C(O)C(Cc1ccc2c(c1)CCC2)(Cc1ccc2c(c1)CCC2)C(=O)O`: the TGI in the experiment on BT-549 breast, in the experiment with A498 renal, in the experiment with M14 melanoma, with OVCAR-4 ovarian, in the experiment on SF-539 CNS and in the experiment with CCRF-CEM leukemia was greater than 100 µM in each case. Further, the TGI in the experiment on NCI-H460 lung, with MDA-N, in the experiment on HCT-116 colon and with OVCAR-3 ovarian was greater than 100 µM each time.

Consider `Cc1nc(-c2ccccc2)c(C)n2c1nc1ccccc12`, for which the TGI with BT-549 breast is 65.5 µM; in the experiment with A498 renal, greater than 100 µM; in the experiment with M14 melanoma, 46 µM; in the experiment on OVCAR-4 ovarian, greater than 100 µM; in the experiment with SF-539 CNS, greater than 100 µM; in the experiment on CCRF-CEM leukemia, greater than 100 µM. In addition, the TGI is 63.3 µM in the experiment with NCI-H460 lung, greater than 100 µM in the experiment with MDA-N, greater than 100 µM with HCT-116 colon and 54.8 µM with OVCAR-3 ovarian.

On to `OC1c2ccccc2[C@@H]2[C@H]1[C@@H](c1ccccc1)C1(Cc3ccccc3C1O)[C@H]2c1ccccc1` (stereo not given in full), for which the TGI in the experiment on BT-549 breast came out at 28.6 µM; with A498 renal, 23.6 µM; in the experiment with M14 melanoma, 17.1 µM; with OVCAR-4 ovarian it was 17.4 µM; in the experiment with SF-539 CNS, 26.6 µM; with CCRF-CEM leukemia it was 12.7 µM. For the same compound, the TGI in the experiment on NCI-H460 lung was found to be 10.2 µM; with MDA-N, 13.7 µM; in the experiment with HCT-116 colon it was 14.5 µM; in the experiment with OVCAR-3 ovarian, 6.27 µM.

As to `COC(=O)C1Cc2c([nH]c3ccccc23)C(c2cccc(O)c2)N1` (stereo not given), the TGI in the experiment with BT-549 breast is 72 µM; in the experiment with A498 renal, greater than 100 µM; with M14 melanoma, 47.4 µM; with OVCAR-4 ovarian it was greater than 100 µM; in the experiment with SF-539 CNS, greater than 100 µM; with CCRF-CEM leukemia, 43.2 µM. In addition, the TGI was 62 µM in the experiment on NCI-H460 lung, 40.1 µM with MDA-N, greater than 100 µM in the experiment with HCT-116 colon and greater than 100 µM in the experiment on OVCAR-3 ovarian.

On to `Oc1c(C2=NNC(c3cccs3)C2)ccc2ccccc12` (stereo not given), for which the TGI in the experiment on BT-549 breast is greater than 100 µM; in the experiment on A498 renal, 56.5 µM; in the experiment with M14 melanoma it was 32.5 µM; with OVCAR-4 ovarian, greater than 100 µM; in the experiment on SF-539 CNS, 43.1 µM; with CCRF-CEM leukemia, 37.4 µM. Also, the TGI in the experiment with NCI-H460 lung turned out to be 43.4 µM; in the experiment on MDA-N, 35.3 µM; with HCT-116 colon, 30.6 µM; in the experiment with OVCAR-3 ovarian it was 43.5 µM.

`Clc1ccccc1/C=C/c1nsc(/C=C/c2ccccc2Cl)n1`: the TGI in the experiment with BT-549 breast, with A498 renal, with M14 melanoma, in the experiment with OVCAR-4 ovarian, in the experiment with SF-539 CNS and in the experiment on CCRF-CEM leukemia was greater than 100 µM throughout. In addition, the TGI is 46.4 µM with NCI-H460 lung, greater than 100 µM in the experiment on MDA-N, greater than 100 µM with HCT-116 colon and greater than 100 µM in the experiment with OVCAR-3 ovarian.

For the compound `COc1cc2c(cc1OC)C1Cc3ccccc3CCN1CC2` (stereo not given), the TGI with BT-549 breast, in the experiment with A498 renal, with M14 melanoma, in the experiment on OVCAR-4 ovarian, with SF-539 CNS and in the experiment on CCRF-CEM leukemia was greater than 100 µM each time. The TGI in the experiment on NCI-H460 lung, with MDA-N, in the experiment on HCT-116 colon and in the experiment on OVCAR-3 ovarian was greater than 100 µM throughout.

Regarding `NS(=O)(=O)c1ccc(NC(=O)c2cc([N+](=O)[O-])cc([N+](=O)[O-])c2)cc1`, the TGI in the experiment with BT-549 breast was greater than 100 µM; in the experiment on A498 renal, greater than 100 µM; in the experiment with M14 melanoma, greater than 100 µM; in the experiment with OVCAR-4 ovarian, 79.2 µM; in the experiment on SF-539 CNS, greater than 100 µM; in the experiment with CCRF-CEM leukemia it was greater than 100 µM. Also, the TGI was greater than 100 µM in the experiment with NCI-H460 lung, 47.2 µM in the experiment with MDA-N, greater than 100 µM in the experiment on HCT-116 colon and 84.9 µM with OVCAR-3 ovarian.

In the case of `CC(C)Nc1[nH]c(C(=O)c2ccccc2)c(N)c1C(=S)Nc1ccccc1`, the TGI with BT-549 breast was greater than 100 µM; in the experiment on A498 renal it was greater than 100 µM; in the experiment with M14 melanoma it was 48.5 µM; in the experiment with OVCAR-4 ovarian it was greater than 100 µM; with SF-539 CNS it was greater than 100 µM; in the experiment on CCRF-CEM leukemia it was greater than 100 µM. Also, the TGI in the experiment with NCI-H460 lung, in the experiment with MDA-N, with HCT-116 colon and in the experiment with OVCAR-3 ovarian was greater than 100 µM each time.

Values taken from PubChem BioAssay (NCI).
